# Experimental data published in the supplement of paper PMC3621838.
# ± gives the standard deviation of the averaged measurements.
# Tested on: HEK293 NF-kB-luciferase reporter cells
# Assay: NF-kB luciferase reporter activity, robust Z-score vs plate median (robust Z-score (log luminescence)); higher = stronger NF-kB reporter activation
# Conditions: TNF 0 ng/mL; TNF treatment time 8.5 h; transfection time 72 h
# Protocol: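 Primary screen of an Ambion Pre-miR miRNA mimic library (miRBase v8.0, 1.6 pmol/well, 384-well, duplicate) reverse-transfected into HEK293 cells stably expressing a 5x NF-kB firefly luciferase reporter. After 72 h the cells were treated with vehicle or TNF (40 ng/mL) for 8.5 h and luminescence was read (BriteLite). Raw luminescence was log-transformed and converted to a robust Z-score per plate: (x - plate median)/plate MAD. Sequence given is the mature miRNA strand of the double-stranded mimic.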
row,Sequence,NF-kB luciferase reporter activity
1,AAAAGCUGGGUUGAGAGGGCGAA,-0.418 ± 0.33
2,AAAAUGGUUCCCUUUAGAGUGUU,-1.7 ± 0.2
3,AAACAAACAUGGUGCACUUCUUU,-1.38 ± 0.64
4,AAACCGUUACCAUUACUGAGUUU,1.13 ± 0.58
5,AAAGCGCUUCCCUUCAGAGUGU,0.00327 ± 0.13
6,AAAGCGCUUCCCUUUGCUGGA,-0.603 ± 0.07
7,AAAGCGCUUCUCUUUAGAGGA,-0.221 ± 1.4
8,AAAGUGCAUCCUUUUAGAGGUUU,-0.831 ± 1
9,AAAGUGCAUCCUUUUAGAGUGUUAC,-1.8 ± 0.56
10,AAAGUGCAUCUUUUUAGAGGAU,-0.977 ± 0.6
11,AAAGUGCCUCCUUUUAGAGUGU,-1.14 ± 0.07
12,AAAGUGCUGCGACAUUUGAGCGU,-0.434 ± 0.93
13,AAAGUGCUUCCCUUUGGACUGU,-1.29 ± 0.15
14,AAAGUGCUUCCUUUUAGAGGC,-1.48 ± 0.11
15,AAAGUGCUUCCUUUUAGAGGG,-1.32 ± 0.33
16,AAAGUGCUUCCUUUUAGAGGGUU,-1.51 ± 0.46
17,AAAGUGCUUCCUUUUUGAGGG,-1.7 ± 0.2
18,AAAGUGCUUCUCUUUGGUGGGUU,-1.14 ± 0.07
19,AACACACCUGGUUAACCUCUUU,-1.14 ± 0.07
20,AACAUUCAUUGUUGUCGGUGGGUU,0.371 ± 0.31
21,AACGCACUUCCCUUUAGAGUGU,0.317 ± 0.45
22,AACGCGCUUCCCUAUAGAGGG,-0.412 ± 0.44

row,Sequence,NF-kB luciferase reporter activity
1,AACUGGCCCUCAAAGUCCCGCUUU,1.11 ± 0.46
2,AACUGGCCUACAAAGUCCCAG,0.721 ± 0.19
3,AAGUGCUGUCAUAGCUGAGGUC,-0.706 ± 0.31
4,AAGUGCUUCCUUUUAGAGGGUU,-1.7 ± 0.2
5,AAUAAUACAUGGUUGAUCUUU,-0.785 ± 0.09
6,AAUAUAACACAGAUGGCCUGU,0.148 ± 0.35
7,AAUCAUACACGGUUGACCUAUU,0
8,AAUCAUACAGGGACAUCCAGUU,-0.326 ± 0.46
9,AAUCCUUGGAACCUAGGUGUGAGU,0.598 ± 0.14
10,AAUCCUUUGUCCCUGGGUGAGA,0.375 ± 0.22
11,AAUCGUACAGGGUCAUCCACUU,-0.187 ± 0.52
12,AAUUGCACUUUAGCAAUGGUGA,0.232 ± 0.073
13,ACAAAGUGCUUCCCUUUAGAGU,-1.29 ± 0.15
14,ACAAAGUGCUUCCCUUUAGAGUGU,-0.845 ± 0.78
15,ACAUAGAGGAAAUUCCACGUUU,0.113 ± 0.85
16,ACUAGACUGAAGCUCCUUGAGG,-0.0115 ± 0.13
17,ACUCAAAAUGGGGGCGCUUUCC,-0.706 ± 0.31
18,ACUGCCCUAAGUGCUCCUUCU,2.18 ± 0.41
19,ACUUCACCUGGUCCACUAGCCGU,0.123 ± 0.3
20,ACUUUAACAUGGAAGUGCUUUCU,-0.37 ± 0.4
21,AGACCCUGGUCUGCACUCUAU,0.885 ± 0.42
22,AGAGGCUGGCCGUGAUGAAUUC,0.912 ± 0.72

row,Sequence,NF-kB luciferase reporter activity
1,AGAGGUAGUAGGUUGCAUAGU,-0.2 ± 0.023
2,AGAGGUAUAGGGCAUGGGAAAA,-0.25 ± 0.57
3,AGAUCGACCGUGUUAUAUUCGC,0.225 ± 0.32
4,AGCUCGGUCUGAGGCCCCUCAG,1.38 ± 0.13
5,AGGACCUGCGGGACAAGAUUCUU,-0.175 ± 0.95
6,AGGGCCCCCCCUCAAUCCUGU,1.69 ± 0.94
7,AGGUUACCCGAGCAACUUUGCA,0.305 ± 0.58
8,AGUGACAUCACAUAUACGGCAGC,-1.06 ± 0.48
9,AGUGGGGAACCCUUCCAUGAGGA,-0.516 ± 0.47
10,AUAAGACGAGCAAAAAGCUUGU,-0.187 ± 0.52
11,AUCACACAAAGGCAACUUUUGU,-0.634 ± 0.41
12,AUCAGCAAACAUUUAUUGUGUG,-0.389 ± 0.14
13,AUCAUAGAGGAAAAUCCACGU,-0.604 ± 0.17
14,AUCAUAGAGGAAAAUCCAUGUU,-0.92 ± 0.38
15,AUCAUGAUGGGCUCCUCGGUGU,-0.346 ± 1.1
16,AUCCUUGCUAUCUGGGUGCUA,-0.588 ± 0.71
17,AUCGGGAAUGUCGUGUCCGCC,1.11 ± 0.67
18,AUCGUGCAUCCCUUUAGAGUGUU,4.42 ± 0.37
19,AUCGUGCAUCCUUUUAGAGUGU,4.81 ± 0.46
20,AUGCACCUGGGCAAGGAUUCUG,-0.197 ± 0.13
21,AUUACAUGGCCAAUCUC,0.0633 ± 0.4
22,AUUCCUAGAAAUUGUUCAUA,0.0899 ± 0.13

row,Sequence,NF-kB luciferase reporter activity
1,AUUCUGCAUUUUUAGCAAGU,3.61 ± 0.35
2,AUUGACACUUCUGUGAGUAG,-0.231 ± 0.69
3,CAAAGCGCUCCCCUUUAGAGGU,0
4,CAAAGCGCUUCCCUUUGGAGC,0.207 ± 0.18
5,CAAAGCGCUUCUCUUUAGAGUG,-0.207 ± 0.29
6,CAAAGUGCCUCCCUUUAGAGUGU,0.645 ± 0.51
7,CAACGGAAUCCCAAAAGCAGCU,0.539 ± 0.19
8,CACCCGUAGAACCGACCUUGCG,-0.634 ± 0.41
9,CACUCAGCCUUGAGGGCACUUUC,-0.36 ± 0.51
10,CAGCAGCAAUUCAUGUUUUGAA,1.16 ± 0.43
11,CAGCAGCACACUGUGGUUUGU,0.765 ± 0.17
12,CAGUGCAAUAGUAUUGUCAAAGC,0.753 ± 0.32
13,CAGUGCAAUGAUGAAAGGGCAU,1.21 ± 0.24
14,CAUCCCUUGCAUGGUGGAGGGU,0.67 ± 0.24
15,CAUCUGGAGGUAAGAAGCACUUU,0.889 ± 0.59
16,CAUCUUACCGGACAGUGCUGGA,-1.28 ± 0.79
17,CCACACCGUAUCUGACACUUU,-0.604 ± 0.17
18,CCACUGCCCCAGGUGCUGCUGG,0.831 ± 0.013
19,CCCAGAUAAUGGCACUCUCAA,-0.57 ± 0.39
20,CCCAGUGUUUAGACUAUCUGUUC,-0.547 ± 0.91
21,CCUAGUAGGUGUCCAGUAAGUGU,-0.0662 ± 0.93
22,CCUCUAGAUGGAAGCACUGUCU,-0.0988 ± 0.27
